Test results from patent US4138491A, “Method for treating diabetes” (Daiichi Seiyaku Co., Ltd., priority 1976, dated 1979).

Legend:
blood sugar level [1] = test: Glucose tolerance test in normal rats (oral compound, glucose load 1 hour later); format: in vivo, normal rat
Experimental: (§1) One index for the treatment of diabetes is to improve this glucose tolerance. The compound of the present invention was orally administered to normal rats, Streptozotocin-induced mildly diabetic rats and AYKK-mice, and thereafter glucose was administered intraperitoneally 1 hour later, and the glucose tolerance was examined. […] Further, a lowering of blood sugar in the glucose tolerance test using normal rats was examined with the passage of time, and the results obtained are given in Table 1 below.
(§2) A sample aqueous solution or suspension was orally administered to the test animals which had been fasted for 24 hours and one hour later glucose was intraperitoneally or subcutaneously administered to the test animals. Thereafter, blood was sampled from the tail vein with the passage of time in order to determine the blood sugar level by the glucose-oxidase method.

blood sugar level [2] = test: Blood sugar lowering activity, fasted rat; format: in vivo
Experimental: (§3) The compounds of the present invention were orally administered to normal rats, mice, dogs and hereditary diabetic mice(AYKK-mice), and the blood sugar lowering activity was examined.
(§4) Test animals which were used included animals which had been fasted for 24 hours to achieve an empty stomach, and animals which had been fed to achieve a full stomach without any restriction of diet. A sample aqueous solution or suspension was orally administered, and blood was sampled with the passage of time from the tail vein or the cephalic vein in order to determine the level of blood sugar by the glucose-oxidase method.

blood sugar level [3] = test: Blood sugar lowering activity, fed mouse; format: in vivo; details: 25 mg/kg PO
Experimental: as §3, §4

blood sugar level [4] = test: Blood sugar lowering activity, fasted beagle; format: in vivo, beagle dog; details: 25 mg/kg PO
Experimental: as §3, §4

blood sugar level [5] = test: Blood sugar lowering activity, fed AγKK (AYKK) mouse, hereditary diabetic; format: in vivo; details: fed AγKK mouse
Experimental: as §3, §4

blood sugar level [6] = test: Glucose tolerance test in streptozotocin-induced mildly diabetic rats; format: in vivo, rat (Wistar strain); details: 10 mg/kg PO; glucose 1 g/kg; sum of increments at 15, 30, 60, 90 min vs control; 100 = no improvement
Experimental: as §1, §2
*4The streptozotocin-induced mildly diabetic rats were produced by […]

blood sugar level [7] = test: Glucose tolerance test in AYKK mice; format: in vivo, AYKK mouse; details: 25 mg/kg PO; glucose 1 g/kg; sum of increments at 15, 30, 60, 90 min vs control; 100 = no improvement
Experimental: as §1, §2
*5AYKK-mouse was obtained by mating a yellow mouse having symptoms of […]

blood insulin [8] = test: Insulin releasing action, fed rats; format: in vivo, rat; details: 25 mg/kg iv
Experimental: (§5) Among the test animals fed rats were anesthetized by administration of pentobarbital (40 mg/kg, ip), and administered, intravenously with an isotonic sodium chloride solution of Compound A. An aqueous solution of the sample was orally administered to fed mice. In both cases blood was sampled from the tail vein with the passage of time, and the blood insulin was determined by the radioimmunoassay method of Morgen et al [Diabetes, Vol. 12, pp 115 (1963)]. At the same time blood sugar was also determined. […] The amount of insulin released in Table 4 was obtained by determining the difference between the blood insulin level at 5 points (5, 10, 20, 30, 40 minutes) during a 40 minute period after administration of the sample in the case of rats or 3 points (0.5, 1.0, 2.0 hours) during a 2 hour period after administration of the sample in the case of mice and the blood insulin level at 0 minute just before administration of the sample and then by summing up these differences.

blood insulin [9] = test: Insulin releasing action, fed mice; format: in vivo, mouse; details: fed mice, 25 mg/kg po
Experimental: as §5

serum lactate level = test: Influence on serum lactate level, repeated administration for 4 days; format: in vivo, normal rat; details: Compound A 200 mg/kg/day (phenformin dose not given)
Experimental: The biguanide drugs heretofore used as a treatment for diabetes are said undesirably to cause acidosis due to an increase of serum lactate level when such drugs are repeatedly administered. The compounds of the present invention were repeatedly administered for 4 days to normal rats and the serum lactate level was determined every day to compare such with the administration of phenformine which is one example of a biguanide drug.
Compound A was repeatedly administered for 4 days to normal rats in a dosage of 200 mg/kg/day, and blood was sampled with the passage of time in order to determine the serum lactate level.

[10] = test system: blood platelet aggregation induced by collagen in rat platelet rich plasma; test: Blood platelet aggregation inhibiting activity (collagen induced, in vitro); format: cell-based; details: read-out: Platelet Aggregation Inhibition Activity, ID50
Experimental: It is generally said that blood platelet aggregability is accelerated in a diabetes patient and that this secondarily causes blood vessel disorders. […] Thus, based on this the compounds of the present invention are expected to be useful in preventing and improving the secondary vasular lesions of diabetes mellitus.
Citrated rat blood was centrifuged in order to obtain platelet rich plasma, and to 0.4 ml of this plasma was added 50 μl of sample solution. To the resulting solution was added 50 μl of collagen suspension under stirring, and platelet aggregation reaction was determined according to the method of Born [Nature, Vol. 194, pp. 927 (1962)]. The concentration of the sample (ID50) which inhibits 50% of the aggregation reaction of the control without the test sample added is shown in Table 6 below.

Acute toxicity (rat) = details: in vivo, read-out: Acute Toxicity (rat) ID50

Compound: c1ccc(C(CC2=NCCN2)c2ccccc2)cc1 [Compound A, 2-(2,2-diphenyl)ethylimidazoline]
- Glucose Tolerance Improving Activity (blood sugar level [1]; 10 mg/kg PO, glucose 2 g/kg, sum of increments at 15, 30, 60, 90 min vs control, 100 = no improvement): 15.7%
- Blood Glucose Level, 0 min (blood sugar level [1]; 10 mg/kg, glucose 2 g/kg, 0 min): 72 ± 3 mg/dL
- Blood Glucose Level, 15 min (blood sugar level [1]; 10 mg/kg, glucose 2 g/kg, 15 min): 83 ± 6 mg/dL
- Blood Glucose Level, 30 min (blood sugar level [1]; 10 mg/kg, glucose 2 g/kg, 30 min): 87 ± 4 mg/dL
- Blood Glucose Level, 60 min (blood sugar level [1]; 10 mg/kg, glucose 2 g/kg, 60 min): 76 ± 3 mg/dL
- Blood Glucose Level, 90 min (blood sugar level [1]; 10 mg/kg, glucose 2 g/kg, 90 min): 68 ± 4 mg/dL
- Blood Glucose Level, before glucose load (-60 min.) (blood sugar level [1]; 10 mg/kg, glucose 2 g/kg, -60 min): 84 ± 1 mg/dL
- blood sugar level maintained after glucose load (blood sugar level [1]; normal rats, Table 1, in words): maintains the blood sugar level in the range of the fasting blood sugar level
- rise in blood sugar level due to the glucose load (blood sugar level [1]; normal rats, Table 1, in words): scarcely any rise in blood sugar level
- Blood Sugar Level (control = 100), 1 Hr (blood sugar level [2]; 10 mg/kg PO): 76%
- Blood Sugar Level (control = 100), 2 Hrs (blood sugar level [2]; 10 mg/kg PO): 71%
- Blood Sugar Level (control = 100), 3 Hrs (blood sugar level [2]; 10 mg/kg PO): 71%
- Blood Sugar Level (control = 100), 5 Hrs (blood sugar level [2]; 10 mg/kg PO): 65%
- Blood Sugar Level (control = 100), 1 Hr (blood sugar level [2]; 25 mg/kg PO): 72%
- Blood Sugar Level (control = 100), 2 Hrs (blood sugar level [2]; 25 mg/kg PO): 67%
- Blood Sugar Level (control = 100), 3 Hrs (blood sugar level [2]; 25 mg/kg PO): 57%
- Blood Sugar Level (control = 100), 5 Hrs (blood sugar level [2]; 25 mg/kg PO): 67%
- Blood Sugar Level (control = 100), 1 Hr (blood sugar level [3]; 1 h): 54%
- Blood Sugar Level (control = 100), 2 Hrs (blood sugar level [3]; 2 h): 67%
- Blood Sugar Level (control = 100), 3 Hrs (blood sugar level [3]; 3 h): 65%
- Blood Sugar Level (control = 100), 5 Hrs (blood sugar level [3]; 5 h): 76%
- Blood Sugar Level (control = 100), 1 Hr (blood sugar level [4]; 1 h): 70%
- Blood Sugar Level (control = 100), 2 Hrs (blood sugar level [4]; 2 h): 66%
- Blood Sugar Level (control = 100), 3 Hrs (blood sugar level [4]; 3 h): 64%
- Blood Sugar Level (control = 100), 1 Hr (blood sugar level [5]; 10 mg/kg PO): 72%
- Blood Sugar Level (control = 100), 2 Hrs (blood sugar level [5]; 10 mg/kg PO): 71%
- Blood Sugar Level (control = 100), 3 Hrs (blood sugar level [5]; 10 mg/kg PO): 62%
- Blood Sugar Level (control = 100), 5 Hrs (blood sugar level [5]; 10 mg/kg PO): 63%
- Blood Sugar Level (control = 100), 1 Hr (blood sugar level [5]; 25 mg/kg PO): 44%
- Blood Sugar Level (control = 100), 2 Hrs (blood sugar level [5]; 25 mg/kg PO): 46%
- Blood Sugar Level (control = 100), 3 Hrs (blood sugar level [5]; 25 mg/kg PO): 41%
- Blood Sugar Level (control = 100), 5 Hrs (blood sugar level [5]; 25 mg/kg PO): 49%
- Glucose Tolerance Improving Activity (blood sugar level [6]): 25.2%
- Glucose Tolerance Improving Activity (blood sugar level [7]): 52.5%
- Blood Sugar Level (blood insulin [8]; after 90 minutes, control = 100): 62%
- Amount of Insulin Released (blood insulin [8]; sum of differences at 5, 10, 20, 30, 40 min): 250±15 μunit/ml
- Blood Sugar Level (blood insulin [9]; after 2 hours, control = 100): 69.8%
- Amount of Insulin Released (blood insulin [9]; sum of differences at 0.5, 1.0, 2.0 hours): 57±14.2 μunit/ml
- Serum Lactate Level, 0 Day (serum lactate level; 0 Day): 0.993±0.051 μ mol/ml
- Serum Lactate Level, After 1 Day (serum lactate level; After 1 Day): 1.386±0.073 μ mol/ml
- Serum Lactate Level, After 4 Days (serum lactate level; After 4 Days): 1.125±0.113 μ mol/ml
- IC50 [10]: 70 µM
- LD50 (Acute toxicity (rat)): 562 mg/kg
